{"source": "patent US11092596B2", "about": "“Material and method to screen proteasome stimulators” (Purdue Research Foundation, priority 2017, dated 2021)", "key": {"Suc-LLVY-AMC": {"tested_on": "T1, Suc-LLVY-AMC", "T1 sequence": "LLVY"}, "[1]": {"tested_on": "T2, chymotrypsin-like FRET reporter (CT-L FRET), Lys(Y1)-Met-Ser-Gly-Phe-Ala-Ala-Thr-Ala-Glu(Y2)-Gly", "T2 sequence": "KMSGFAATAEG"}, "[2]": {"target": "T3, chymotrypsin-like activity of the 20S CP (Homo sapiens, UniProt P28074)", "T3 construct": "5 μL purified 20S proteasome (90 nM in Tris-HCl) was added to the control and test wells", "assay": "Kinetic assay, CT-L FRET reporter hydrolysis by purified 20S CP", "assay_type": "biochemical", "conditions": "for increase in the rate of hydrolysis (CT-L FRET reporter): 9 nM 20S CP, vs basal", "method": "(§1) Plate preparation for the kinetic assay was performed similarly for all assays. All 96-well plates contained the following in triplicate: reporter background, containing reporter only, and control wells, containing reporter and purified 20S CP. It was determined that each well will contain a total volume of 50 μL. To each well was added 40 μL of the coumarin or FRET reporters (in Tris-HCl, 50 mM, pH 7.7). To the reporter background wells was added 7.5 μL Tris-HCl and 2.5 μL of the solvent in which the compound of interest was dissolved or diluted. Similarly, to the control wells was added 2.5 μL Tris-HCl and 2.5 μL of the solvent in which the compound of interest was dissolved or diluted. To the test wells was added 2.5 μL Tris-HCl and 2.5 μL of the compound of interest at a predetermined concentration. Immediately prior to running the assay on the Synergy 4 Plate Reader, 5 μL purified 20S proteasome (90 nM in Tris-HCl) was added to the control and test wells.\n(§2) The Synergy 4 Plate Reader was set to heat the plate at 37° C. and read fluorescence every 2 min over a 40 min period. The excitation and emission wavelengths were set according to the reporter. For the FRET reporter, the excitation and emission wavelengths were set to 335 nm and 493 nm, respectively, corresponding to the excitation and emission wavelengths of the Edans fluorophore. For the coumarin reporter, the excitation and emission wavelengths were set to 380 nm and 460 nm, respectively.\n(§3) AM-404 was used as a positive control compound to test the dose-response screening capabilities of the CT-L FRET reporter. The following concentrations of AM-404 were tested in triplicate: 50, 25, and 12.5 μM. To each well was added 40 μL 20 μM CT-L FRET (in Tris-HCl, 50 mM, pH 7.7). To the reporter background wells was added 5 μL Tris-HCl and 5 μL 1:1 Tris-HCl:DMSO. Similarly, to the control wells was added 5 μL 1:1 Tris-HCl:DMSO. To the 50 μM AM-404 test wells was added 2.5 μL Tris-HCl and 2.5 μL 1000 μM AM-404 in DMSO. To the 25 μM AM-404 test wells was added 2.5 μL Tris-HCl and 2.5 μL 500 μM AM-404 in DMSO. To the 12.5 μM AM-404 test wells was added 2.5 μL Tris-HCl and 2.5 μL 250 μM AM-404 in DMSO. Immediately prior to running the assay on the Synergy 4 Plate Reader, 5 μL purified 20S proteasome (90 nM in Tris-HCl) was added to the control and test wells. The assay was performed using the Synergy 4 plate reader as described for the general screening kinetic assay procedure.\nas §3, with “Fenofibrate was” for “AM-404 was”, “a negative” for “a positive”, “of fenofibrate” for “of AM-404”, “μM fenofibrate” for “μM AM-404”, “procedure. […]” for “procedure.”"}, "20S CP": {"target": "20S CP (Homo sapiens, UniProt P28074)", "conditions": "in cellulo, Suc-LLVY-AMC reporter, previously reported; read-out: EC50 as 20S CP stimulator; cited from earlier work"}, "26S proteasome": {"tested_on": "26S proteasome", "conditions": "at concentrations as low as 5 μM; cited from earlier work"}, "[3]": {"target": "T3, chymotrypsin-like activity of the 20S CP", "assay": "Kinetic assay, Suc-LLVY-AMC reporter hydrolysis by purified 20S CP", "assay_type": "biochemical", "method": "as §1\nas §2, with “For the coumarin reporter, the excitation and emission wavelengths were set to 380 nm and 460 nm, respectively.” left out\nSodium dodecyl sulfate (SDS) was used to test the effect stimulating the 20S proteasome has on the hydrolysis of the FRET reporters. The appropriate concentration of SDS to use in the kinetic assay was determined using the small chymotrypsin-like activity reporter, Suc-LLVY-AMC (SEQ ID NO: 4). […] In triplicate, the following final concentrations of SDS were analyzed for the effect each has on the activity of the 20S proteasome: 4000 μM, 2000 μM, 1000 μM, 500 μM, 250 μM, 125 μM, and 0 μM, the basal activity of the 20S proteasome. […] Immediately prior to reading the plate with the Synergy 4 plate reader, 5 μL purified 20S proteasome (90 nM in Tris-HCl) was added to the wells at a final concentration of 9 nM per well.\nThe Synergy 4 Plate Reader was set to heat the plate at 37° C. and read fluorescence every 2 min over a 1 hr period. […] The resulting data in relative fluorescence units (RFU) was analyzed using GraphPad Prism and was plotted against time in minutes. […] Based on the resulting curve and the hyperbolic curve obtained using 1000 μM SDS (FIG. 11b), it was determined that 500 μM SDS was the appropriate concentration to use to test the effect stimulating the 20S proteasome has on the hydrolysis of the FRET reporters.\nStimulation of the 20S proteasome with SDS was determined using both the coumarin and FRET reporters for the chymotrypsin-like and trypsin-like activities of the 20S CP. […]"}, "[4]": {"target": "T4, trypsin-like activity of the 20S CP (Homo sapiens, UniProt Q99436)", "assay": "Kinetic assay, T-L FRET reporter hydrolysis by purified 20S CP", "assay_type": "biochemical", "conditions": "500 μM SDS", "method": "as §1\nas §2, with “For the coumarin reporter, the excitation and emission wavelengths were set to 380 nm and 460 nm, respectively.” left out\n(§4) Stimulation of the 20S proteasome with SDS was determined using both the coumarin and FRET reporters for the chymotrypsin-like and trypsin-like activities of the 20S CP. […] Immediately prior to running the assay on the Synergy 4 Plate Reader, 5 μL purified 20S proteasome (90 nM in Tris-HCl) was added to the control and test wells. The assay was performed using the Synergy 4 plate reader as described for the general screening kinetic assay procedure. […]\nTo each well was added 40 μL 20 μM T-L FRET reporter (in Tris-HCl, 50 mM, pH 7.7). […] Immediately prior to running the assay on the Synergy 4 Plate Reader, 5 μL purified 20S proteasome (90 nM in Tris-HCl) was added to the control and test wells."}, "[5]": {"target": "T4, trypsin-like activity of the 20S CP", "assay": "Kinetic assay, Bz-VGR-AMC reporter hydrolysis by purified 20S CP", "assay_type": "biochemical", "conditions": "500 μM SDS", "method": "as §1, with “To the test wells was added 2.5 μL Tris-HCl and 2.5 μL of the compound of interest at a predetermined concentration.” left out\nThe Synergy 4 Plate Reader was set to heat the plate at 37° C. and read fluorescence every 2 min over a 40 min period. […]\nas §4, with “wells.” for “wells. The assay was performed using the Synergy 4 plate reader as described for the general screening kinetic assay procedure.”"}}, "note": "Structures can show the parent of a compound that is named as a salt."}
{"compound": "20S core particle (20S CP) of the proteasome", "values": [{"measurement": "rate of hydrolysis (average basal level, no stimulator)", "setting": "Suc-LLVY-AMC", "value": "60 ΔRFU/min"}, {"measurement": "Mean Signal (Rate), Basal (background) activity of the 20S CP", "setting": "[1]", "value": 5.3}, {"measurement": "rate of hydrolysis (average basal level, no stimulator)", "setting": "[1]", "value": "2.9 ΔRFU/min"}]}
{"compound": "CCCCC/C=C\\C/C=C\\C/C=C\\C/C=C\\CCCC(=O)Nc1ccc(O)cc1", "note": "[AM-404]", "values": [{"measurement": "increase in the rate of hydrolysis (CT-L FRET reporter)", "setting": "[2]; 12.5 μM compound (lowest concentration tested)", "value": 4, "unit": "fold"}, {"measurement": "increase in the rate of hydrolysis (CT-L FRET reporter)", "setting": "[2]; 25.0 μM compound", "value": 5, "unit": "fold"}, {"measurement": "increase in the rate of hydrolysis (CT-L FRET reporter)", "setting": "[2]; 50.0 μM compound", "value": 7, "unit": "fold"}, {"measurement": "Mean Signal (Rate)", "setting": "[2]; CT-L FRET reporter, 20S CP, basal 5.300", "value": 40.46}, {"measurement": "dose dependence of 20S CP stimulation", "setting": "[2]; CT-L FRET reporter, dose response curve", "value": "dose-dependent"}, {"measurement": "EC50", "setting": "20S CP", "value": "~32", "unit": "µM"}]}
{"compound": "O=C(O)c1cc(O)c2c(c1)[C@@H]([C@H]1c3cc(C(=O)O)cc(O)c3C(=O)c3c(O[C@@H]4O[C@H](CO)[C@@H](O)[C@H](O)[C@H]4O)cccc31)c1cccc(O[C@@H]3O[C@H](CO)[C@@H](O)[C@H](O)[C@H]3O)c1C2=O", "note": "[Compound 4, Sennoside B]", "values": [{"measurement": "validation of primary hits in triplicate", "setting": "[2]; 25 μM, newly purchased compound, CT-L FRET reporter", "value": "did not perform as it had in the initial screen"}]}
{"compound": "CN(C)C(=O)C(CCN1CCC(O)(c2ccc(Cl)cc2)CC1)(c1ccccc1)c1ccccc1", "note": "[Loperamide HCl]", "values": [{"measurement": "stimulation of the 26S proteasome", "setting": "26S proteasome", "value": "stimulate the 26S proteasome"}]}
{"compound": "CCCCCCCCCCCCOS(=O)(=O)[O-].[Na+]", "note": "[SDS, sodium dodecyl sulfate]", "values": [{"measurement": "increase in the rate, CT-L FRET reporter", "setting": "[2]; 500 μM SDS vs basal", "value": 8.3, "unit": "fold"}, {"measurement": "average rate of hydrolysis, CT-L FRET reporter", "setting": "[2]; 500 μM SDS, basal 2.9 ΔRFU/min", "value": "24 ΔRFU/min"}, {"measurement": "increase in the rate, Suc-LLVY-AMC reporter", "setting": "[3]; 500 μM SDS vs basal", "value": 2.4, "unit": "fold"}, {"measurement": "average rate of hydrolysis, Suc-LLVY-AMC reporter", "setting": "[3]; 500 μM SDS, basal 60 ΔRFU/min", "value": "145 ΔRFU/min"}, {"measurement": "increase in the rate of hydrolysis of T-L FRET reporter compared to basal activity", "setting": "[4]", "value": 5, "unit": "fold"}, {"measurement": "increase in the rate of hydrolysis of Bz-VGR-AMC compared to basal activity", "setting": "[5]", "value": 2, "unit": "fold"}]}
{"compound": "CC(C)C[C@H](NC(=O)[C@H](Cc1ccccc1)NC(=O)c1cnccn1)B(O)O", "note": "[bortezomib]", "values": [{"measurement": "decrease in the rate of hydrolysis of the CT-L FRET reporter", "setting": "[2]; 2 μM bortezomib", "value": 40, "unit": "%"}]}
